The subject of one data set is IL-12/pSTAT4. As to the kind of experiment: IL-12 induced pSTAT4 assay in NK-92 cells. In kind it is cell-based. The following applies: Homo sapiens, NK92, IL-12 stimulation, read-out: Cellular potency (IL-12/pSTAT4). In a few lines: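 Overnight-starved NK-92 cells (20K/well) pre-incubated with compounds (1000 to 0.05 nM final) 30 min at 37 °C, then stimulated with IL-12 (10 ng/ml) for 30 min at 37 °C. Lysates assayed for pSTAT4 (Tyr693) by MSD electrochemiluminescence.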

Data set [1] can be described thus: Brain exposure pharmacokinetic study in rats. Conditions: male Sprague Dawley rats, oral gavage 10 mg/kg, plasma, CSF. The data set is classed as in vivo, rat. The protocol:
The brain exposure of exemplary compounds, e.g., 1, 2, and 4 were evaluated in male Sprague Dawley rats after oral gavage administration at 10 mg/kg. The formulation was 5% DMSO+10% PEG400 in saline. Rats were fasted overnight with food returned 4 hours post-dose. CSF was collected by direct needle puncture into the cisterna magna.
(§1) For both rat and mouse studies, brain tissue was washed with 3 volumes of saline prior to homogenization. Brain tissue was homogenized with 3 volumes (v/w) of phosphate buffered saline. Plasma, brain homogenate, and CSF samples (rat only) were analyzed by LC-MS/MS and the concentration of test compound at each time point was determined by linear regression.
(§2) Pharmacokinetic parameters were calculated from the plasma, brain, and CSF concentrations by non-compartmental modeling using WinNonlin 8.2.

In the next data set the target is T1, TYK2-JH2 (Homo sapiens, UniProt P29597).
T1 construct: TYK JH2 enzyme mix (ChemPartnec CP20210818A-BV); purchased ChemPartner CP20210818A-BV
Put plainly: TYK2-JH2 HTRF binding assay (ligand efficiency). The following applies: calculated from IC50 of the TYK-JH2 binding assay (Equation 1). In a few lines:
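His-tagged TYK2 JH2 (0.5 nM) preincubated 10 min at RT with compound (0.1–0.000005 μM) in 20 mM HEPES pH 7.5, 10 mM MgCl2, 0.01% Triton X-100, 1 mM DTT; then 35 nM tracer plus anti-6HIS Tb cryptate, 60 min RT. TR-FRET read (Ex340/Em495/520); IC50 converted to ligand efficiency.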

The test system of another data set is IL-6/pSTAT3. As to the kind of experiment: IL-6 induced pSTAT3 assay in TF-1 cells. The data set is classed as cell-based. Conditions: Homo sapiens, read-out: Cellular selectivity (IL-6/pSTAT3). As for the experimental part: The following example describes the IL-6 induced pSTAT3 assay used to determine the cellular selectivity (IL-6/pSTAT3) of the TYK2 inhibitors.
TF-1 (ATCC®, CRL-2003™) cells were cultured in RPMI 1640 Medium, with GlutaMAX™ Supplement, HEPES for Cell Culture (Life Technologies, 72400047), 10% Fetal Bovine Serum (Life Technologies, 26400044), 2 ng/mL human recombinant GM-CSF (Life Technologies, PHC2013), 1 mM Sodium pyruvate (Life Technologies, 11360039), 1% MEM NEAA (Life Technologies, 11140-035), 1% Penicillin/Streptomycin (Life Technologies, 15140-122).
TF-1 (70×10^6) cells were starved overnight in T01 50 flasks (Opti-MEM™ I Reduced Serum Medium, no phenol red (Life Technologies, 11058-021), 1 mM Na pyruvate (Life Technologies, 11360039), 1% MEM NEAA (Life Technologies, 11140-035), and 1% Penicillin/Streptomycin (Life Technologies, 15140-122)) then seeded into 96-well TPP plates (150 000 cell/well) and incubated with test compounds (Final Concentration [nM] 10000-0.05) for 30 minutes at 37° C. […] Stimulation was terminated by addition of lysis buffer (MSD K150SVD) and pSTAT3 detection was measured with Phospho-STAT3 (Tyr705) Kit MSD K150SVD)) according to manufacturer's instruction. Briefly, cell lysates were added to pre-blocked plates, sealed, and shake for 1 hour at room temperature. Plates were then washed and incubated with detection antibody for 1 hour at room temperature. After washing, Read Buffer was added, and plates were read on MSD instrument (Model 1300 MSD Quickplex SQ 120).

Another data set relates to GM-CSF/pSTAT5. Put plainly: GM-CSF induced pSTAT5 assay in CellSensor irf1-bla TF-1 cells. In kind it is cell-based. Conditions: Homo sapiens, GM-CSF 1 ng/mL, read-out: Cellular selectivity (GM-CSF induced pSTAT5). The protocol:
The CellSensor irf1-bla TF-1 cell line (LifeTechnologies, K1657) was cultured in RPMI 1640 Medium (Invitrogen 72400-047), 10% Fetal Bovine Serum (Invitrogen, 26400044), 1 mM Sodium pyruvate (Life Technologies, 11360039), 1% MEM NEAA (Life Technologies, 11140-035), 2 ng/ml of human recombinant GM-CSF (Fisher, PHC2015), 1% Penicillin/Streptomycin (Life Technologies, 15140-122) and 5 μg/ml of Blasticidin (ThermoFisher, A1113903).
The cell line was seeded in a T75 flask at 13×10^6 cells/50 mL in starvation medium (Opti-MEM™ I Reduced Serum Medium, no phenol red (Life Technologies, 11058-021), 1 mM Na pyruvate (Life Technologies, 11360039), 1% MEM NEAA (Life Technologies, 11140-035), and 1% Penicillin/Streptomycin (Life Technologies, 15140-122)) for 16 hours at 37° C. under 5% CO2 the day before the assay.
For the assay, CellSensor irf1-bla TF-1 cells were seeded at 30 000 cells/32 μL (starvation medium)/well in a 384-well plate.
Compounds were added on the cells in 4 μL (starvation medium)/well at 10× the final concentration. They were incubated for 30 minutes at 37° C.
Human recombinant carrier-free GM-CSF (ThermoFisher, ref PHC2015) was added to the wells in 4 μL (starvation medium)/well at 10×. The final concentration was 1 ng/mL. Control wells without GM-CSF treatment were added. Plates were incubated for 5 hours at 37° C.
6× LiveBlazer-FRET substrate (Invitrogen, K1085) was added to the wells at 8 μL/well. The substrate was prepared shortly before use by mixing 6 μL of solution A and 60 μL of solution B to 934 μL of solution C. Plates were incubated for 2.5 hours at room temperature in the dark. The plates were read on an Envision (Perkin Elmer) with an excitation at a wavelength of 409 nm and two wavelengths for the emission 520 nm and 450 nm. The ratio between the […] emission was used to calculate the IC50s.
The IC50 for the inhibition of pSTAT5 was calculated with the Xlfit software using the 4 Parameter Logistic Model or Sigmoidal Dose-Response Model (model 205).

Data set [2] can be described thus: Brain exposure pharmacokinetic study in mice. In kind it is in vivo, mouse. Conditions: male C57BL/6 mice, oral gavage 5 mg/kg, plasma. As for the experimental part:
The brain exposure of 18 was evaluated in male C57BL/6 mice after oral gavage administration at 5 mg/kg. The formulation was 10% DMSO+40% PEG400 in saline. Mice were provided free access to food and water without fasting. Terminal sample collection of plasma and brain tissue were collected at […], 0.25, 0.5, 1, 2, and 4 hours post-dose with n=3 at each timepoint.
as §1, §2

T1 sequence (P29597 589-875 limits assumed): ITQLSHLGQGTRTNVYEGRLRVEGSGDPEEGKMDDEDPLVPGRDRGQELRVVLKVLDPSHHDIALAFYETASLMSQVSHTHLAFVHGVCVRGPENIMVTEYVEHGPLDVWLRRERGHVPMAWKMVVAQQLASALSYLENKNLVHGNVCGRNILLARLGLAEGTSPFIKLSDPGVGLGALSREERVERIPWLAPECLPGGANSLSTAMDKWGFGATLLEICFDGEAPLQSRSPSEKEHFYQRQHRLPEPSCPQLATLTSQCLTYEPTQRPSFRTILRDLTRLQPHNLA

With `C[C@@H](c1ccc(Nc2cc(Nc3ncccc3S(C)(=O)=O)ncn2)nc1)N1CC2(COC2)C1` [Compound 1, (S)—N^4-(5-(1-(2-oxa-6-azaspiro[3.3]heptan-6-yl)ethyl)73yridine-2-yl)-N^6-(3-(methylsulfonyl)73yridine-2-yl)pyrimidine-4,6-diamine], the IC50 in the data set with IL-12/pSTAT4 was below 0.1 µM; in the data set with IL-6/pSTAT3 it was above 10 µM; in the data set on GM-CSF/pSTAT5 it was 4 to 10 µM. In addition, the “Brain Kpu, u” value in data set [1] is recorded as “†† (†† 0.1-0.2u)”. In addition, the “Ligand Efficiency” value on TYK2-JH2 is recorded as “††† (†††: >0.39)”.

As to `C[C@@H](c1ccc(Nc2cc(Nc3ncc(F)cc3S(C)(=O)=O)ncn2)nc1)N1CC2(COC2)C1` [Compound 2, (S)—N^4-(5-(1-(2-oxa-6-azaspiro[3.3]heptan-6-yl)ethyl)75yridine-2-yl)-N^6-(5-fluoro-3-(methylsulfonyl)75yridine-2-yl)pyrimidine-4,6-diamine], the IC50 was below 0.1 µM in the data set on IL-12/pSTAT4, above 10 µM with IL-6/pSTAT3 and above 10 µM in the data set with GM-CSF/pSTAT5. Besides, the “Brain Kpu, u” value in data set [1] is “† († <0.1u)”. The “Ligand Efficiency” value at TYK2-JH2 was “††† (†††: >0.39)”.

Take `C[C@@H](c1ccc(Nc2cc(Nc3ncccc3S(C)(=O)=O)ncn2)nc1)N(C)C` [Compound 4, (S)—N^4-(5-(1-(dimethylamino)ethyl)79yridine-2-yl)-N^6-(3-(methylsulfonyl) 79yridine-2-yl) pyrimidine-4,6-diamine]: the IC50 was below 0.1 µM in the data set with IL-12/pSTAT4, 4 to 10 µM with IL-6/pSTAT3 and above 10 µM in the data set on GM-CSF/pSTAT5. The “Brain Kpu, u” value in data set [1] is given as “††† (††† >0.2u)”. Further, at TYK2-JH2, the “Ligand Efficiency” value is on record as “††† (†††: >0.39)”.

`Cc1cccc(Nc2cc(Nc3ncccc3S(C)(=O)=O)ncn2)n1` [Compound 18, N^4-(6-methylpyridin-2-yl)-N^6-(3-(methylsulfonyl)99yridine-2-yl) pyrimidine-4,6-diamine]: the IC50 in the data set on IL-12/pSTAT4 was below 0.1 µM; in the data set with IL-6/pSTAT3, below 4 µM; in the data set with GM-CSF/pSTAT5, above 10 µM. Moreover, at TYK2-JH2, the “Ligand Efficiency” value is reported as “††† (†††: >0.39)”. The “Brain Kpu, u” value in data set [2] is on record as “††† (††† >0.2u)”.

`Cc1cncc(Nc2cc(Nc3ccccc3C(N)=O)ncn2)n1` [Compound 49, 2-(6-(6-methylpyrazin-2-ylamino)pyrimidin-4-ylamino)benzamide]: the values for the IC50 in the data set with IL-12/pSTAT4, in the data set on IL-6/pSTAT3 and with GM-CSF/pSTAT5 were 0.1 to 1 µM, below 4 µM and above 10 µM, respectively. Besides, the “Ligand Efficiency” value at TYK2-JH2 is listed as “††† (†††: >0.39)”.

For `Cc1cccc(Nc2cc(Nc3ccccc3NS(C)(=O)=O)ncn2)n1` [Compound 53, N-(2-(6-(6-methylpyridin-2-ylamino)pyrimidin-4-ylamino)phenyl) methanesulfonamide], the values for the IC50 with IL-12/pSTAT4, in the data set with IL-6/pSTAT3 and in the data set on GM-CSF/pSTAT5 were 0.1 to 1 µM, below 4 µM and 4 to 10 µM, respectively. For the same compound, at TYK2-JH2, the “Ligand Efficiency” value is given as “††† (†††: >0.39)”.

(Values after patent publication US12358904B2, “Inhibitors of TYK2” (Atomwise Inc., priority 2023, dated 2025).)
